Reference: patent publication US9120744B2, “Plasminogen activator inhibitor-1 inhibitors and methods of use thereof to modulate lipid metabolism” (THE REGENTS OF THE UNIVERSITY OF MICHIGAN, priority 2007, dated 2015)
Where a SMILES comes first, the peptide text is derived from it. [ ]: non-standard residue; d: D form. The star is where a group is joined. Tyr(3-NO2) = N[C@@H](Cc1ccc(O)c([N+](=O)[O-])c1)C(=O)O; Boc = CC(C)(C)OC(=O)*

Key:
[1] = target: T1, recombinant active human PAI-1 (Homo sapiens (Human), UniProt P05121); experiment: pH dependence of PAI-1 inhibition, fluorogenic uPA (or tPA) assay; format: biochemical; conditions: for PAI-1 inhibitory efficacy (in words): pH 7.5 (FIG. 8), additional experiments; for effect of pH on PAI-1 inhibition (in words): pH 6.5 to 8.5
[2] = target: T1, recombinant active human PAI-1; experiment: Fluorometric IC50 plate assay (PAI-1 inhibition of uPA, Z-Gly-Gly-Arg-AMC); format: biochemical; conditions: in vitro, PAI-1 1 nM, uPA 2.5 nM, pH 7.8, 10% DMSO; ND = not detected, e.g. no inhibition
PAI-1 = PAI-1 (Homo sapiens (Human), UniProt P05121); experiment: Surface plasmon resonance, loss of PAI-1 binding to immobilized anhydrotrypsin; conditions: PAI-1 2 nM preincubated with compound, SPR; read-out: Apparent KD (nM) ± SEM
active mouse PAI-1 = active mouse PAI-1 (Mus musculus (Mouse), UniProt P22777); experiment: Ex vivo plasma Luminex assay, mouse plasma spiked with active mouse PAI-1; format: biochemical; conditions: mouse plasma spiked with active mouse PAI-1 3-4 ng/mL
[3] = target: T1, recombinant active human PAI-1; experiment: High throughput uPA chromogenic screen for PAI-1 inactivators; format: biochemical; conditions: 10 μM compound; hit = more than 3 standard deviations above control
[4] = target: T1, recombinant active human PAI-1; experiment: Chromogenic uPA assay of PAI-1 inhibition (pGlu-Gly-Arg pNA); format: biochemical
[5] = target: T1, recombinant active human PAI-1; experiment: β-trypsin screening assay for PAI-1 inhibitors; format: biochemical; conditions: 10 μM compound; hit = more than 3 standard deviations above control;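 also: fluorogenic readout with PAI-1 and β-trypsin at 10:1 molar ratio, untreated PAI-1 wells set as 100% PAI-1 activity and β-trypsin alone as 0%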

Chain of PAI-1 (P05121 24-402): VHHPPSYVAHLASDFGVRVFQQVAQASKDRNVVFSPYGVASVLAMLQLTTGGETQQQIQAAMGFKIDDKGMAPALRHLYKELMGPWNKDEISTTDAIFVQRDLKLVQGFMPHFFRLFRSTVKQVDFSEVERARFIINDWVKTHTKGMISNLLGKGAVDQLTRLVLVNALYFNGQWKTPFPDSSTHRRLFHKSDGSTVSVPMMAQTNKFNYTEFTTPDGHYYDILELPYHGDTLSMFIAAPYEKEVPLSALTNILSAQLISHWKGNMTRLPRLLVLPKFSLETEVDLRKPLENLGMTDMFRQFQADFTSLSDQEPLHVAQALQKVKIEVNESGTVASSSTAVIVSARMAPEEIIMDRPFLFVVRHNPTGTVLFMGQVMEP
T1 sequence (P05121 24-402): as above
Chain of active mouse PAI-1 (P22777 23-402): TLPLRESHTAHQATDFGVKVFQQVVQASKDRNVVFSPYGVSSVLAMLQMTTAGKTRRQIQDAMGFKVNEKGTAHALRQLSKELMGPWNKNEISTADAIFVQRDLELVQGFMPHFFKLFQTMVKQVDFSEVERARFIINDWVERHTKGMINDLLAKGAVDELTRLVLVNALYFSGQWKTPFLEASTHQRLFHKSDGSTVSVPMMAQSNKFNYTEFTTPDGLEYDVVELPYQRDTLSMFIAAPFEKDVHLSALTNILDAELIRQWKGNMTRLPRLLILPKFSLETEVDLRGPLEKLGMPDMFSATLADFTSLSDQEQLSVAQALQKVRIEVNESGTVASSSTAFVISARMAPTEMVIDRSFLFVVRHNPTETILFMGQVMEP

PAI-1 inhibitory efficacy (in words) [1]	IC50 [2]	Compound	also measured
effective PAI-1 inhibitors		O=C(OC[C@H]1OC(OC(=O)c2cc(O)c(O)c(O)c2)[C@H](OC(=O)c2cc(O)c(O)c(O)c2)[C@@H](OC(=O)c2cc(O)c(O)c(O)c2)[C@@H]1OC(=O)c1cc(O)c(O)c(O)c1)c1cc(O)c(O)c(O)c1 (stereo partly shown) [CDE-001]	
effective PAI-1 inhibitors		O=C(OC[C@H]1O[C@@H](OC(=O)c2cc(O)c(O)c(O)c2)[C@@H](OC(=O)c2cc(O)c(O)c(O)c2)[C@@H](OC(=O)c2cc(O)c(O)c(O)c2)[C@@H]1OC(=O)c1cc(O)c(O)c(O)c1)c1cc(O)c(O)c(O)c1 [CDE-002]	
effective PAI-1 inhibitors		O=C(OC[C@H]1O[C@H](OC(=O)c2cc(O)c(O)c(O)c2)[C@H](OC(=O)c2cc(O)c(O)c(O)c2)[C@@H](OC(=O)c2cc(O)c(O)c(O)c2)[C@H]1OC(=O)c1cc(O)c(O)c(O)c1)c1cc(O)c(O)c(O)c1 [CDE-003]	
effective PAI-1 inhibitors		O=C(OC[C@H]1O[C@@H](OC(=O)c2cc(O)c(O)c(O)c2)[C@H](OC(=O)c2cc(O)c(O)c(O)c2)[C@@H](OC(=O)c2cc(O)c(O)c(O)c2)[C@H]1OC(=O)c1cc(O)c(O)c(O)c1)c1cc(O)c(O)c(O)c1 [CDE-004]	
not inhibitory		O=C(OC[C@H]1O[C@@H](OC(=O)c2cc(OCc3ccccc3)c(OCc3ccccc3)c(OCc3ccccc3)c2)[C@H](OC(=O)c2cc(OCc3ccccc3)c(OCc3ccccc3)c(OCc3ccccc3)c2)[C@@H](OC(=O)c2cc(OCc3ccccc3)c(OCc3ccccc3)c(OCc3ccccc3)c2)[C@H]1OC(=O)c1cc(OCc2ccccc2)c(OCc2ccccc2)c(OCc2ccccc2)c1)c1cc(OCc2ccccc2)c(OCc2ccccc2)c(OCc2ccccc2)c1 [CDE-006]	
not inhibitory		O=C(OC[C@H]1O[C@H](OC(=O)c2cc(OCc3ccccc3)c(OCc3ccccc3)c(OCc3ccccc3)c2)[C@H](OC(=O)c2cc(OCc3ccccc3)c(OCc3ccccc3)c(OCc3ccccc3)c2)[C@@H](OC(=O)c2cc(OCc3ccccc3)c(OCc3ccccc3)c(OCc3ccccc3)c2)[C@H]1OC(=O)c1cc(OCc2ccccc2)c(OCc2ccccc2)c(OCc2ccccc2)c1)c1cc(OCc2ccccc2)c(OCc2ccccc2)c(OCc2ccccc2)c1 [CDE-007]	
effective PAI-1 inhibitors	49.3 µM	O=C(OCCOCCOC(=O)c1cc(O)c(O)c(O)c1)c1cc(O)c(O)c(O)c1 [CDE-009]	
effective PAI-1 inhibitors	338 µM	O=C(OCCOCCOCCOCCOC(=O)c1cc(O)c(O)c(O)c1)c1cc(O)c(O)c(O)c1 [CDE-011]	
effective PAI-1 inhibitors	196 µM	O=C(OCCOCCOCCOC(=O)c1cc(O)c(O)c(O)c1)c1cc(O)c(O)c(O)c1 [CDE-012]	
effective PAI-1 inhibitors	7.85 µM	O=C(OCCCOC(=O)c1cc(O)c(O)c(O)c1)c1cc(O)c(O)c(O)c1 [CDE-013]	
effective inhibitors of PAI-1	450 µM	O=S(=O)(NCCNS(=O)(=O)c1ccc(O)c(O)c1)c1ccc(O)c(O)c1 [CDE-021]	effect of pH on PAI-1 inhibition (in words) [1]: increased with increasing pH
effective inhibitors of PAI-1	386 µM	CC(C)(C)OC(=O)N[C@@H](Cc1ccc(O)c([N+](=O)[O-])c1)C(=O)O [CDE-028]	effect of pH on PAI-1 inhibition (in words) [1]: increased with increasing pH
effective inhibitors of PAI-1		COc1ccc(S(=O)(=O)NCCNS(=O)(=O)c2ccc(OC)c(OC)c2)cc1OC [CDE-029]	effect of pH on PAI-1 inhibition (in words) [1]: increased with increasing pH
effective inhibitors of PAI-1		CCN(CCN(CC)S(=O)(=O)c1ccc(OC)c(OC)c1)S(=O)(=O)c1ccc(OC)c(OC)c1 [CDE-030]	effect of pH on PAI-1 inhibition (in words) [1]: increased with increasing pH
effective inhibitors of PAI-1	0.28 µM	O=C(O[C@H]1CCCC[C@H]1OC(=O)c1cc(O)c(O)c(O)c1)c1cc(O)c(O)c(O)c1 [CDE-031]	Kd (PAI-1): 31 ± 2 nM; effect of pH on PAI-1 inhibition (in words) [1]: increased with increasing pH
effective inhibitors of PAI-1	10.2 µM	CCN(CCN(CC)S(=O)(=O)c1ccc(O)c(O)c1)S(=O)(=O)c1ccc(O)c(O)c1 [CDE-032]	effect of pH on PAI-1 inhibition (in words) [1]: increased with increasing pH
	1.17 µM	O=C(O[C@@H]1CCCC[C@H]1OC(=O)c1cc(O)c(O)c(O)c1)c1cc(O)c(O)c(O)c1 [CDE-034]	Kd (PAI-1): 67 ± 3 nM
	47.9 µM	O=C(OCCOC(=O)c1cccc(OC(=O)c2cc(O)c(O)c(O)c2)c1)c1cccc(OC(=O)c2cc(O)c(O)c(O)c2)c1 [CDE-041]	
	900 µM	O=C(NCCNC(=O)c1cc(O)c(O)c(O)c1)c1cc(O)c(O)c(O)c1 [CDE-044]	
	28.7 µM	O=C(OCCOC(=O)c1ccc(O)cc1O)c1ccc(O)cc1O [CDE-051]	

PAI-1 inhibitory efficacy (in words) [1]	IC50 [2]	Compound	also measured
	27.5 µM	O=C(c1cc(O)c(O)c(O)c1)N1CCN(C(=O)c2cc(O)c(O)c(O)c2)CC1 [CDE-055]	
	2.96 µM	O=C(Oc1ccccc1OC(=O)c1cc(O)c(O)c(O)c1)c1cc(O)c(O)c(O)c1 [CDE-056]	Kd (PAI-1): 51 ± 6 nM
	195 µM	O=C(O[C@@H]1CCC[C@H](OC(=O)c2cc(O)c(O)c(O)c2)C1)c1cc(O)c(O)c(O)c1 [CDE-057]	
	0.09 µM	O=S(=O)(NNS(=O)(=O)c1ccc(O)c(O)c1)c1ccc(O)c(O)c1 [CDE-059]	IC50 (active mouse PAI-1): 973 µM
	0.05 µM	O=C(O[C@H]1CC[C@@H](OC(=O)c2cc(O)c(O)c(O)c2)CC1)c1cc(O)c(O)c(O)c1 [CDE-061]	
	332 µM	O=C(O[C@H]1CC[C@H](OC(=O)c2cc(O)c(O)c(O)c2)CC1)c1cc(O)c(O)c(O)c1 [CDE-062]	
	2200 µM	COc1cc(C(=O)N(C)CCN(C)C(=O)c2cc(OC)c(O)c(OC)c2)cc(OC)c1O [CDE-064]	
	423 µM	COc1cc(C(=O)N2CCN(C(=O)c3cc(OC)c(O)c(OC)c3)CC2)cc(OC)c1O [CDE-065]	
	48.3 µM	CC(C)(COC(=O)c1cc(O)c(O)c(O)c1)COC(=O)c1cc(O)c(O)c(O)c1 [CDE-067]	
	32.7 µM	CN(N(C)S(=O)(=O)c1ccc(O)c(O)c1)S(=O)(=O)c1ccc(O)c(O)c1 [CDE-068]	
	562 µM	COc1cc(C(=O)OCCOC(=O)c2cc(OC)c(O)c(OC)c2)cc(OC)c1O [CDE-069]	
	269 µM	O=C(NCCCNC(=O)c1cc(O)c(O)c(O)c1)c1cc(O)c(O)c(O)c1 [CDE-070]	
	104 µM	O=S(=O)(NNS(=O)(=O)c1ccc(O)cc1)c1ccc(O)cc1 [CDE-072]	
	1.71 µM	O=S(=O)(c1ccc(O)c(O)c1)N1CCCCN1S(=O)(=O)c1ccc(O)c(O)c1 [CDE-074]	
	0.07 µM	CC(C)(C)OC(=O)NCC(COC(=O)c1cc(O)c(O)c(O)c1)OC(=O)c1cc(O)c(O)c(O)c1 (stereo not shown) [CDE-075]	
		O=C(OCC(COC(=O)c1cc(O)c(O)c(O)c1)OC(=O)c1cc(O)c(O)c(O)c1)c1cc(O)c(O)c(O)c1 [CDE-082]	Kd (PAI-1): 5.3 ± 0.2 nM
		O=C(Oc1cc(O)cc2c1C[C@@H](OC(=O)c1cc(O)c(O)c(O)c1)[C@@H](c1cc(O)c(O)c(O)c1)O2)c1cc(O)c(O)c(O)c1 [epigallocatechin 3,5 digallate]	screening hit: restoration of uPA activity [3]: positive hits
		O=C(O)c1cc(O)c(O)c(O)c1 [gallic acid]	fold less active toward PAI-1 than tannic acid ([4]; FIG. 2): approximately 1000 fold; fold less active toward PAI-1 than tannic acid ([4]; other data (not shown)): up to 4000 fold; effect of pH on PAI-1 inhibition (in words) [1]: increased with increasing pH to 8.5
		Oc1c(Cl)cc(Cl)c(Cl)c1Cc1c(O)c(Cl)cc(Cl)c1Cl [hexachlorophene]	screening hit: restoration of β-trypsin activity [5]: demonstrate PAI-1 inhibitor activity; effect of pH on PAI-1 inhibition (in words) [1]: did not improve at pH 8.5 compared to pH 7.5
		SAPPANONE A DIMETHYL ETHER	screening hit: restoration of β-trypsin activity [5]: demonstrate PAI-1 inhibitor activity

Compound	PAI-1 inhibitory efficacy (in words) [1]	IC50 [2]	also measured
CCOC(=O)[C@H](Cc1ccc(O)c([N+](=O)[O-])c1)NC(=O)[C@H](Cc1ccc(O)c([N+](=O)[O-])c1)NC(=O)OC(C)(C)C [CDE-033] (Boc-[Tyr(3-NO2)]-[Tyr(3-NO2)]-OEt)		246 µM	
CC(C)(C)OC(=O)N[C@@H](Cc1ccc(O)c([N+](=O)[O-])c1)C(=O)N[C@@H](Cc1ccc(O)c([N+](=O)[O-])c1)C(=O)O [CDE-035] (Boc-[Tyr(3-NO2)]-[Tyr(3-NO2)]-OH)		146 µM	
O=C(NCCNC(=O)c1ccc(O)c([N+](=O)[O-])c1)c1ccc(O)c([N+](=O)[O-])c1 [CDE-060]		236 µM	
